Like-named read-outs stand apart in the source and are kept apart here.
Legend:
[1] = target: T1, μ-opioid receptor (Homo sapiens (Human), UniProt P35372); experiment: μ-opioid receptor functional assay (U-2 OS cells); assay type: biochemical; conditions: for Emax: U-2 OS cells, relative to DAMGO
Procedure: (§1) [^35S]GTPγS functional assays were conducted using freshly thawed μ-receptor membranes prepared in-house from a cell line expressing recombinant μ opioid receptor in a HEK-293, CHO or U-2 OS cell background, or purchased from a commercial source (Perkin Elmer, Shelton, Conn.; or DiscovRx, Fremont, Calif.). Assay reactions were prepared by sequentially adding the following reagents to binding buffer (100 mM NaCl, 10 mM MgCl2, 20 mM HEPES, pH 7.4) on ice (final concentrations indicated): membrane protein (0.026 mg/mL), saponin ([…]), GDP ([…]) and [^35S]GTPγS (0.20 nM; Perkin Elmer, Shelton, Conn.). The prepared membrane solution (190 μl/well) was transferred to 96-shallow well polypropylene plates containing 10 μl of 20× concentrated stock solutions of the agonist [D-Ala^2, N-methyl-Phe^4 Gly-ol^5]-enkephalin (DAMGO) prepared in dimethyl sulfoxide (DMSO). Plates were incubated for 30 min at about 25° C. with shaking. Reactions were terminated by rapid filtration onto 96-well Unifilter GF/B filter plates (Perkin Elmer, Shelton, Conn.) using a 96-well tissue harvester (Perkin Elmer, Shelton, Conn.) followed by three filtration washes with 200 μl of ice-cold wash buffer (10 mM NaH2PO4, 10 mM Na2HPO4, pH 7.4). Filter plates were subsequently dried at 50° C. for 2-3 hours. BetaScint scintillation cocktail (Perkin Elmer, Shelton, Conn.) was added (50 μl/well) and plates were counted using a Packard Top-Count for 1 min/well. Data were analyzed using the sigmoidal dose-response curve fitting functions in GraphPad PRISM v. 3.0, or an in-house function for non-linear, sigmoidal dose-response curve-fitting. [^35S]GTPγS functional assays can also be conducted using freshly thawed μ-receptor membranes prepared from a cell line expressing recombinant μ opioid receptor in a CHO-K1 cell background.
(§2) μ GTP EC50 is the concentration of a compound providing 50% of the maximal response for the compound at a μ-opioid receptor.
(§3) μ GTP Emax (%) is the maximal effect elicited by a compound relative to the effect elicited by DAMGO, a standard μ agonist.

[2] = target: T1, μ-opioid receptor; experiment: μ-opioid receptor [35S]GTPγS functional assay (HEK-293 cells); assay type: biochemical; conditions: for Emax: HEK-293 cells, relative to DAMGO
Procedure: as §1, §2, §3
In TABLE 4, activity response of certain Compounds of the Invention to the μ- and κ-opioid receptors was determined as described above for functional assays using HEK-293 cells.

[3] = target: T1, μ-opioid receptor; experiment: μ-opioid receptor radioligand dose-displacement binding assay (HEK-293 cells)
Procedure: Radioligand dose-displacement binding assays for μ-opioid receptors used 0.3 nM [^3H]-diprenorphine (Perkin Elmer, Shelton, Conn.), with […] membrane protein/well in a final volume of 500 μl binding buffer (10 mM MgCl2, 1 mM EDTA, 5% DMSO, 50 mM HEPES, pH 7.4). Reactions were carried out in the absence or presence of increasing concentrations of unlabeled naloxone. All reactions were conducted in 96-deep well polypropylene plates for 2 hours at room temperature. Binding reactions were terminated by rapid filtration onto 96-well Unifilter GF/C filter plates (Perkin Elmer, Shelton, Conn.), presoaked in 0.5% polyethylenimine using a 96-well tissue harvester (Perkin Elmer, Shelton, Conn.) followed by performing three filtration washes with 500 μl of ice-cold binding buffer. Filter plates were subsequently dried at 50° C. for 2-3 hours. BetaScint scintillation cocktail (Perkin Elmer, Shelton, Conn.) was added (50 μl/well), and plates were counted using a Packard Top-Count for 1 min/well. The data were analyzed using the one-site competition curve fitting functions in GraphPad PRISM™ v. 3.0 or higher (San Diego, Calif.), or an in-house function for one-site competition curve-fitting.
(§4) In TABLE 3, binding affinity of certain Compounds of the Invention to the μ- and κ-opioid receptors was determined as described above using HEK-293 cells.

[4] = target: recombinant human kappa opioid receptor (κ) (Homo sapiens (Human), UniProt P41145); experiment: κ-opioid receptor radioligand dose-displacement binding assay (HEK-293 cells)
Procedure: Membranes from HEK-293 cells, CHO cells or U-2 OS cells expressing the recombinant human kappa opioid receptor (κ) were prepared by lysing cells in ice cold hypotonic buffer (2.5 mM MgCl2, 50 mM HEPES, pH 7.4) (10 mL/10 cm dish) followed by homogenization with a tissue grinder/Teflon pestle. Membranes from a cell line naturally expressing kappa opioid receptor can also be used. Membranes were collected by centrifugation at 30,000×g for 15 min at 4° C. and pellets were resuspended in hypotonic buffer to a final concentration of 1-3 mg/mL. Protein concentrations were determined using the BioRad protein assay reagent with bovine serum albumen as standard. Aliquots of κ receptor membranes were stored at −80° C.
Radioligand dose displacement assays used 0.4 nM [^3H]-U69,593 (GE Healthcare, Piscataway, N.J.; 40 Ci/mmole) with 15 μg membrane protein (recombinant κ opioid receptor expressed in HEK 293 cells; in-house prep) in a final volume of 200 μl binding buffer (5% DMSO, 50 mM Trizma base, pH 7.4). Non-specific binding was determined in the presence of 10 μM unlabeled naloxone or U69,593. All reactions were performed in 96-well polypropylene plates for 1 hour at a temperature of about 25° C. Binding reactions were terminated by rapid filtration onto 96-well Unifilter GF/C filter plates (Perkin Elmer, Shelton, Conn.) presoaked in 0.5% polyethylenimine (Sigma). Harvesting was performed using a 96-well tissue harvester (Perkin Elmer, Shelton, Conn.) followed by five filtration washes with 200 μl ice-cold binding buffer. Filter plates were subsequently dried at 50° C. for 1-2 hours. Fifty μl/well scintillation cocktail (Perkin Elmer, Shelton, Conn.) was added and plates were counted in a Packard Top-Count for 1 min/well.
as §4

[5] = target: κ-opioid receptor (Homo sapiens (Human), UniProt P41145); experiment: κ-opioid receptor functional assay (U-2 OS cells); assay type: biochemical; conditions: for Emax: U-2 OS cells, relative to U69,593
Procedure: Functional [^35S]GTPγS binding assays were conducted as follows. κ opioid receptor membrane solution was prepared by sequentially adding final concentrations of 0.026 μg/μl κ membrane protein (in-house), 10 μg/mL saponin, 3 μM GDP and 0.20 nM [^35S]GTPγS to binding buffer (100 mM NaCl, 10 mM MgCl2, 20 mM HEPES, pH 7.4) on ice. The prepared membrane solution (190 μl/well) was transferred to 96-shallow well polypropylene plates containing 10 μl of 20× concentrated stock solutions of agonist prepared in DMSO. Plates were incubated for 30 min at a temperature of about 25° C. with shaking. Reactions were terminated by rapid filtration onto 96-well Unifilter GF/B filter plates (Perkin Elmer, Shelton, Conn.) using a 96-well tissue harvester (Packard) and followed by three filtration washes with 200 μl ice-cold binding buffer (10 mM NaH2PO4, 10 mM Na2HPO4, pH 7.4). Filter plates were subsequently dried at 50° C. for 2-3 hours. Fifty μl/well scintillation cocktail (Perkin Elmer, Shelton, Conn.) was added and plates were counted in a Packard Top-Count for 1 min/well.
κ GTP EC50 is the concentration of a compound providing 50% of the maximal response for the compound at a κ receptor.
κ GTP Emax (%) is the maximal effect elicited by a compound relative to the effect elicited by U69,593.
The following TABLE 5 provides results on the activity response of certain Compounds of the Invention at the μ- and κ-opioid receptors determined as described above using U-2 OS cells.

Compound	EC50 [1]	Emax [1]	EC50 [2]	Emax [2]	Ki [3]	Ki [4]	EC50 [5]	Emax [5]	Ki ([3]; bound given in μM)	Ki ([4]; bound given in μM)
COc1ccc2c(c1)[C@]13CCN(CC4CC4)[C@H](C2)[C@]12CC[C@@](NC(=O)c1ccccc1)(CO2)C3 [Compound 18, N-((4bR,6S,8aS,9R)-11-(cyclopropylmethyl)-3-methoxy-5,6,7,8,9,10-hexahydro-9,4b-(epiminoethano)-8a,6-(epoxymethano)phenanthren-6-yl)benzamide]	7.53 ± 0.69 nM	107 ± 8.35%	175 ± 21.7 nM	41 ± 1.58%	0.0359 ± 0.00818 µM	0.032 ± 0.01 nM	0.42 ± 0.016 nM	111 ± 2.6%		
COc1ccc2c(c1)[C@]13CCN(CC4CC4)[C@H](C2)[C@]12CC[C@@](N)(CO2)C3 [Compound 8, (4bR,6S,8aS,9R)-11-(cyclopropylmethyl)-3-methoxy-5,6,7,8,9,10-hexahydro-9,4b-(epiminoethano)-8a,6-(epoxymethano)phenanthren-6-amine]	88.8 ± 20.6 nM	106 ± 2.96%	1110 ± 242 nM	27.8 ± 2.17%	0.773 ± 0.161 µM	4.72 ± 1.07 nM	34.5 ± 3.61 nM	112 ± 1.33%		
COc1ccc2c(c1)[C@]13CCN(CC4CC4)[C@H](C2)[C@]12CC[C@@](N(C)C)(CO2)C3 [Compound 28, (4bR,6S,8aS,9R)-11-(cyclopropylmethyl)-3-methoxy-N,N-dimethyl-5,6,7,8,9,10-hexahydro-9,4b-(epiminoethano)-8a,6-(epoxymethano)phenanthren-6-amine]	339 ± 31.6 nM	68.7 ± 0.67%	1920 ± 693 nM	18.8 ± 1.46%			132 ± 25.7 nM	107 ± 2.4%		
COc1ccc2c(c1)[C@]13CCN(CC4CC4)[C@H](C2=O)[C@]12CC[C@](O)(C3)C(=O)O2 [Compound 33, (4bR,6S,8aS,9S)-11-(cyclopropylmethyl)-6-hydroxy-3-methoxy-5,6,7,8-tetrahydro-9,4b-(epiminoethano)-8a,6-(epoxymethano)phenanthrene-10,15(9H)-dione]						3350 ± 325 nM			> 20 µM	
COc1ccc2c(c1)[C@]13CCN(CC4CC4)[C@H](C2)[C@]12CC[C@@](Nc1ccccc1)(CO2)C3 [Compound 30, (4bR,6S,8aS,9R)-11-(cyclopropylmethyl)-3-methoxy-N-phenyl-5,6,7,8,9,10-hexahydro-9,4b-(epiminoethano)-8a,6-(epoxymethano)phenanthren-6-amine]	9.93 ± 0.87 nM	69 ± 2.65%	83.6 ± 23.4 nM	20.3 ± 0.67%			0.14 ± 0.039 nM	105 ± 3.53%		
COc1ccc2c(c1)[C@]13CCN(CC4CC4)[C@H](C2)[C@]12CC[C@@](N1CCCC1)(CO2)C3 [Compound 32, (4bR,6S,8aS,9R)-11-(cyclopropylmethyl)-3-methoxy-6-(pyrrolidin-1-yl)-5,6,7,8,9,10-hexahydro-9,4b-(epiminoethano)-8a,6-(epoxymethano)phenanthrene]	255 ± 26.6 nM	69 ± 2.89%	1380 ± 234 nM	20.7 ± 0.33%			26.6 ± 5.92 nM	104 ± 3.61%		
CN1CC[C@]23C[C@@]4(N)CC[C@@]2(OC4)[C@H]1Cc1ccc(O)cc13 [Compound 35, (4bR,6S,8aS,9R)-6-amino-11-methyl-5,6,7,8,9,10-hexahydro-9,4b-(epiminoethano)-8a,6-(epoxymethano)phenanthren-3-ol]			291 ± 23.2 nM	50.3 ± 2.33%						
COc1ccc2c(c1)[C@]13CCN(CC4CC4)[C@H](C2)[C@]12CC[C@@](Nc1ccc(C(C)(C)C)cc1)(CO2)C3 [Compound 29, (4bR,6S,8aS,9R)—N-(4-tert-butyl)phenyl-11-(cyclopropylmethyl)-3-methoxy-5,6,7,8,9,10-hexahydro-9,4b-(epiminoethano)-8a,6-(epoxymethano)phenanthren-6-amine]	2.02 ± 0.28 nM	43.3 ± 2.4%	> 20000 nM	7.5 ± 1.55%			3.08 ± 0.32 nM	113 ± 4.41%		
COc1ccc2c(c1)[C@]13CCN(CC4CC4)[C@H](C2)[C@]12CC[C@@](N1CCOCC1)(CO2)C3 [Compound 31, (4bR,6S,8aS,9R)-11-(cyclopropylmethyl)-3-methoxy-6-morpholino-5,6,7,8,9,10-hexahydro-9,4b-(epiminoethano)-8a,6-(epoxymethano)phenanthrene]	147 ± 7.61 nM	38.7 ± 2.96%	887 ± 278 nM	9 ± 1.15%			30 ± 7.2 nM	103.7 ± 0.33%		
CN[C@]12CC[C@@]3(OC1)[C@H]1Cc4ccc(O)cc4[C@@]3(CCN1CC1CC1)C2 [Compound 37, (4bR,6S,8aS,9R)-11-(cyclopropylmethyl)-6-(methylamino)-5,6,7,8,9,10-hexahydro-9,4b-(epiminoethano)-8a,6-(epoxymethano)phenanthren-3-ol]			3.44 ± 0.78 nM	19 ± 1%						
COc1ccc2c(c1)[C@]13CCN(CC4CC4)[C@H]([C@@H]2O)[C@]12CC[C@](O)(C3)C(=O)O2 [Compound 34, (4bR,6S,8aS,9R,10R)-11-(cyclopropylmethyl)-6,10-dihydroxy-3-methoxy-5,6,7,8,9,10-hexahydro-9,4b-(epiminoethano)-8a,6-(epoxymethano)phenanthren-15-one]									> 20 µM	> 20000 nM
